Experiments:
Format in all cases: in vivo
[1] = test system: barnyardgrass (Echinochloa crus-galli); experiment: Test A preemergence, barnyardgrass; conditions: 10 days
Procedure, shortened: (§1)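 Pre: soil-directed spray on seeded loam/sand pots. Post: spray on 2–10 cm seedlings, 1–2 leaves. Surfactant-containing solvent vehicle. Greenhouse 10 d; visual % control vs untreated.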

[2] = test system: foxtail, giant (giant foxtail, Setaria faberi); experiment: Test A preemergence, foxtail, giant; conditions: Setaria faberi, pre-emergence, 240 h, 0 to 100 scale, 10 days, read-out: Plant response rating, Foxtail, Giant; for pest or weed control at 31 g/ha: 31 g ai/ha; for pest or weed control at 125 g/ha: 125 g ai/ha
Procedure, shortened: as §1

[3] = test system: redroot pigweed (Amaranthus retroflexus); experiment: Test A preemergence, redroot pigweed; conditions: 0 to 100 scale, 10 days
Procedure, shortened: as §1

[4] = test system: ragweed (common ragweed, Ambrosia artemisiifolia); experiment: Test A preemergence, ragweed; conditions: Ambrosia artemisiifolia, pre-emergence, 240 h, 0 to 100 scale, 10 days, read-out: Plant response rating, Ragweed; for pest or weed control at 31 g/ha: 31 g ai/ha; for pest or weed control at 125 g/ha: 125 g ai/ha
Procedure, shortened: as §1

[5] = test system: ryegrass, Italian (Italian ryegrass, Lolium multiflorum); experiment: Test A preemergence, ryegrass, Italian; conditions: Lolium multiflorum, pre-emergence, 240 h, 0 to 100 scale, 10 days, read-out: Plant response rating, Ryegrass, Italian; for pest or weed control at 31 g/ha: 31 g ai/ha; for pest or weed control at 125 g/ha: 125 g ai/ha
Procedure, shortened: as §1

[6] = test system: barnyardgrass (Echinochloa crus-galli); experiment: Test A postemergence, barnyardgrass; conditions: Postemergence, 0 to 100 scale, 10 days
Procedure, shortened: as §1

[7] = test system: blackgrass (Alopecurus myosuroides); experiment: Test A postemergence, blackgrass; conditions: Alopecurus myosuroides, post-emergence, 240 h, Postemergence, 0 to 100 scale, 10 days, read-out: Plant response rating, Blackgrass; for pest or weed control at 31 g/ha: 31 g ai/ha; for pest or weed control at 125 g/ha: 125 g ai/ha
Procedure, shortened: as §1

[8] = test system: foxtail, giant (giant foxtail, Setaria faberi); experiment: Test A postemergence, foxtail, giant; conditions: Setaria faberi, post-emergence, 240 h, Postemergence, 0 to 100 scale, 10 days, read-out: Plant response rating, Foxtail, Giant; for pest or weed control at 31 g/ha: 31 g ai/ha; for pest or weed control at 125 g/ha: 125 g ai/ha
Procedure, shortened: as §1

[9] = test system: redroot pigweed (Amaranthus retroflexus); experiment: Test A postemergence, redroot pigweed; conditions: 10 days
Procedure, shortened: as §1

[10] = test system: ragweed (common ragweed, Ambrosia artemisiifolia); experiment: Test A postemergence, ragweed; conditions: Ambrosia artemisiifolia, post-emergence, 240 h, 10 days, read-out: Plant response rating, Ragweed; for pest or weed control at 31 g/ha: 31 g ai/ha, postemergence, 0 to 100 scale (0 no effect, 100 complete control); for pest or weed control at 125 g/ha: Postemergence, 125 g ai/ha, 0 to 100 scale
Procedure, shortened: as §1

[11] = test system: ryegrass, Italian (Italian ryegrass, Lolium multiflorum); experiment: Test A postemergence, ryegrass, Italian; conditions: Lolium multiflorum, post-emergence, 240 h, 10 days, read-out: Plant response rating, Ryegrass, Italian; for pest or weed control at 31 g/ha: 31 g ai/ha, postemergence, 0 to 100 scale (0 no effect, 100 complete control); for pest or weed control at 125 g/ha: Postemergence, 125 g ai/ha, 0 to 100 scale
Procedure, shortened: as §1

[12] = test system: galium (catchweed bedstraw, Galium aparine); experiment: Test A postemergence, galium; conditions: Galium, post-emergence, 240 h, 10 days, read-out: Plant response rating, Galium; for pest or weed control at 31 g/ha: 31 g ai/ha, postemergence, 0 to 100 scale (0 no effect, 100 complete control); for pest or weed control at 125 g/ha: Postemergence, 125 g ai/ha, 0 to 100 scale
Procedure, shortened: as §1

[13] = test system: barnyardgrass (Echinochloa crus-galli); experiment: Test B flooded paddy test, barnyardgrass; conditions: Echinochloa crus-galli; 250 g ai/ha, Flood; visually evaluated after 10 to 14 days; read-out: Plant response rating, Barnyardgrass (0 to 100 scale where 0 is no effect and 100 is complete control)
Procedure, shortened: (§2)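 2-leaf plants; pots flooded to 3 cm; compound applied to paddy water; depth kept constant; greenhouse 10–14 d; visual rating vs untreated, 0 = no effect, 100 = complete control.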

[14] = test system: ducksalad (Heteranthera limosa); experiment: Test B flooded paddy test, ducksalad; conditions: Heteranthera limosa; 250 g ai/ha, Flood; visually evaluated after 10 to 14 days; read-out: Plant response rating, Ducksalad (0 to 100 scale where 0 is no effect and 100 is complete control)
Procedure, shortened: as §2

rice (Oryza sativa) = experiment: Test B flooded paddy test, rice; conditions: Oryza sativa; 250 g ai/ha, Flood; visually evaluated after 10 to 14 days; read-out: Plant response rating, Rice (0 to 100 scale where 0 is no effect and 100 is complete control)
Procedure, shortened: as §2

[15] = test system: sedge, umbrella (small-flower umbrella sedge, Cyperus difformis); experiment: Test B flooded paddy test, sedge, umbrella; conditions: Cyperus difformis; 250 g ai/ha, Flood; visually evaluated after 10 to 14 days; read-out: Plant response rating, Sedge, Umbrella (0 to 100 scale where 0 is no effect and 100 is complete control)
Procedure, shortened: as §2

[16] = 125 g ai/ha, 0 to 100 scale (0 no effect, 100 complete control)
[17] = 31 g ai/ha, postemergence, 0 to 100 scale (0 no effect, 100 complete control)
[18] = Postemergence, 125 g ai/ha, 0 to 100 scale

Compound | Plant response rating, Barnyardgrass ([1]; 31 g ai/ha, 0 to 100 scale) | Plant response rating, Barnyardgrass [1, 16] | Plant response rating, Pigweed, Redroot ([3]; 31 g ai/ha) | Plant response rating, Pigweed, Redroot ([3]; 125 g ai/ha) | pest or weed control at 31 g/ha [5] [%] | pest or weed control at 125 g/ha [5] [%] | Plant response rating, Barnyardgrass ([6]; 31 g ai/ha) | Plant response rating, Barnyardgrass ([6]; 125 g ai/ha) | pest or weed control at 31 g/ha [7] [%] | pest or weed control at 125 g/ha [7] [%] | Plant response rating, Pigweed, Redroot [9, 17] | Plant response rating, Pigweed, Redroot [9, 18] | pest or weed control at 31 g/ha [10] [%] | pest or weed control at 125 g/ha [10] [%] | pest or weed control at 31 g/ha [11] [%] | pest or weed control at 125 g/ha [11] [%] | pest or weed control at 31 g/ha [12] [%] | pest or weed control at 125 g/ha [12] [%] | pest or weed control at 250 g/ha [13] [%] | pest or weed control at 250 g/ha [14] [%] | also measured
CC(=O)OCOc1c(C)nn(C)c(=O)c1-c1c(Br)sc2ccc(F)cc12 [Compound 2, 5-[(acetyloxy)methoxy]-4-(2-bromo-5-fluorobenzo[b]thien-3-yl)-2,6-dimethyl-3(2H)-pyridazinone] | 0 | 0 | 90 | 100 | 70 | 100 | 50 | 60 | 30 | 30 | 80 | 90 | 70 | 100 | 80 | 100 | 90 | 100 | 0 | 20 | pest or weed control at 31 g/ha [2]: 30%; pest or weed control at 125 g/ha [2]: 60%; pest or weed control at 31 g/ha [4]: 70%; pest or weed control at 125 g/ha [4]: 90%; pest or weed control at 31 g/ha [8]: 50%; pest or weed control at 125 g/ha [8]: 90%; plant injury at 250 g/ha (rice (Oryza sativa)): 0%; pest or weed control at 250 g/ha [15]: 45%
CC(=O)OCOc1c(Cl)nn(C)c(=O)c1-c1c(C)ccc2ccccc12 [Compound 5, 5-[(acetyloxy)methoxy]-6-chloro-2-methyl-4-(2-methyl-1-naphthalenyl)-3(2H)-pyridazinone] | 80 | 100 | 100 | 100 | 70 | 100 | 40 | 80 | 20 | 50 | 90 | 100 | 80 | 90 | 30 | 80 | 100 | 100 | 40 | 80 | pest or weed control at 31 g/ha [4]: 100%; pest or weed control at 125 g/ha [4]: 100%; plant injury at 250 g/ha (rice (Oryza sativa)): 35%; pest or weed control at 250 g/ha [15]: 85%
CC(=O)OCOc1c(Cl)nn(C)c(=O)c1-c1c2ccccc2c(Cl)c2ccccc12 [Compound 11, 5-[(acetyloxy)methoxy]-6-chloro-4-(10-chloro-9-anthracenyl)-2-methyl-3(2H)-pyridazinone] | 20 | 30 | 100 | 100 | 0 | 30 | 20 | 30 | 40 | 10 | 100 | 100 | 100 | 100 | 10 | 70 | 100 | 100 | 15 | 80 | pest or weed control at 31 g/ha [2]: 10%; pest or weed control at 125 g/ha [2]: 60%; pest or weed control at 31 g/ha [8]: 30%; pest or weed control at 125 g/ha [8]: 80%; plant injury at 250 g/ha (rice (Oryza sativa)): 0%; pest or weed control at 250 g/ha [15]: 95%

Reference: patent US12692238B2, “Substituted pyridazinone herbicides” (FMC CORPORATION, priority 2020, dated 2026)
